In ChEMBL document CHEMBL5316312, “Novel Diarylthioether Compounds as Agents for the Treatment of Chagas Disease” (J Med Chem, 2023):
pIC50: −log10 of the molar value. Converted amounts (≈) assume the structure as drawn. The source made the active and inactive calls. No cut-off for these calls is given here.

Columns and labels:
[1] = Cytotoxicity against rat H9c2 cells assessed as reduction in cell viability measured for 72 hrs; type: toxicity, cell-based
Trypanosoma cruzi [2] = experiment: Antitrypanosomal activity against Trypanosoma cruzi Tulahuen trypomastigotes assessed as reduction in parasite growth incubated for 4 hrs by cell counter analysis; type: functional, organism-based
[3] = Microsomal stability in CD-1 mouse liver microsome measured assessed as intrinsic clearance upto 30 mins by HPLC-MS/MS analysis; type: ADME; details: microsomes, 0.5 h
[4] = Microsomal stability in CD-1 mouse liver microsome measured assessed as half life upto 30 mins by HPLC-MS/MS analysis; type: ADME; details: liver microsomes
[5] = Microsomal stability in human liver microsome measured assessed as intrinsic clearance upto 30 mins by HPLC-MS/MS analysis; type: ADME; details: microsomes, 0.5 h
[6] = Microsomal stability in human liver microsome measured assessed as half life upto 30 mins by HPLC-MS/MS analysis; type: ADME; details: liver microsomes
[7] = Cmax in BALB/c mouse at 50 mg/kg, po measured at 15 to 1440 mins by LC-MS/MS analysis; type: ADME, organism-based; parameters: time lower 15 min, dose 50 mg/kg, time upper 1440 min, route po; details: in vivo
[8] = Tmax in BALB/c mouse at 50 mg/kg, po measured at 15 to 1440 mins by LC-MS/MS analysis; type: ADME, organism-based; details: in vivo, time 15-1440 min
[9] = AUC (0 to t) in BALB/c mouse at 50 mg/kg, po measured at 15 to 1440 mins by LC-MS/MS analysis; type: ADME, organism-based; parameters: dose 50 mg/kg, time upper 1440 min, time lower 15 min, route po; details: in vivo
Trypanosoma cruzi [10] = experiment: Antitrypanosomal activity against Trypanosoma cruzi Tulahuen strain trypomastigotes infected in rat H9c2 cells; type: functional, organism-based
Trypanosoma cruzi [11] = experiment: Antitrypanosomal activity against Trypanosoma cruzi Tulahuen amastigotes infected in monkey LLC-MK2 cells assessed as reduction in amastigotes per 100 cells by cell counting analysis; type: functional, organism-based
[12] = Cytotoxicity against monkey LLC-MK2 cells assessed as reduction in cell viability; type: toxicity, cell-based; details: rhesus monkey (Macaca mulatta)
[13] = target: Sterol 14-alpha demethylase (Trypanosoma cruzi (strain CL Brener), UniProt Q7Z1V1); experiment: Inhibition of Trypanosoma cruzi CYP51
Sterol 14-alpha demethylase, sequence (Q7Z1V1 whole entry): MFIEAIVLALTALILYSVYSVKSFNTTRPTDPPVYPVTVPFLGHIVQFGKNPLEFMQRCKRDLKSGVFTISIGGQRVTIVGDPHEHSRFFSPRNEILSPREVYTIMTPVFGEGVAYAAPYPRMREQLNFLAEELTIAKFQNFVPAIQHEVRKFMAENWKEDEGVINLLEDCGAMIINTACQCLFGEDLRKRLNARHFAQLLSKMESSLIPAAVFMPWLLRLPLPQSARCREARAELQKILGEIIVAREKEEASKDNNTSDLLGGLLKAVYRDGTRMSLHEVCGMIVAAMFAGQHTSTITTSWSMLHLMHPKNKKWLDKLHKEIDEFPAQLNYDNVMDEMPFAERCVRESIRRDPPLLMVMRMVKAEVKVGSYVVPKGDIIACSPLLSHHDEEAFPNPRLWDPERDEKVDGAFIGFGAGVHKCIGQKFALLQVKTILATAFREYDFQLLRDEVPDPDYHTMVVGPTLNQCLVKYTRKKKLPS

Trypanosoma cruzi [14] = experiment: Antitrypanosomal activity against Trypanosoma cruzi Tulahuen amastigotes infected in monkey LLC-MK2 cells assessed reduction in amastigotes per 100 cells by measuring rate of kill time by counting analysis; type: functional
[15] = Cytotoxicity against mouse NIH3T3 cells assessed as reduction in cell viability; type: toxicity, cell-based
HepG2 = experiment: Cytotoxicity against human HepG2 cells assessed as reduction in cell viability; type: functional, cell-based
[16] = Equilibrium solubility of the compound in FaSSIF at pH 6.5; type: physicochemical
[17] = target: Voltage-gated inwardly rectifying potassium channel KCNH2 (Homo sapiens, UniProt Q12809); experiment: Inhibition of hERG cardiac ion channel; type: toxicity
Voltage-gated inwardly rectifying potassium channel KCNH2, sequence (Q12809 whole entry): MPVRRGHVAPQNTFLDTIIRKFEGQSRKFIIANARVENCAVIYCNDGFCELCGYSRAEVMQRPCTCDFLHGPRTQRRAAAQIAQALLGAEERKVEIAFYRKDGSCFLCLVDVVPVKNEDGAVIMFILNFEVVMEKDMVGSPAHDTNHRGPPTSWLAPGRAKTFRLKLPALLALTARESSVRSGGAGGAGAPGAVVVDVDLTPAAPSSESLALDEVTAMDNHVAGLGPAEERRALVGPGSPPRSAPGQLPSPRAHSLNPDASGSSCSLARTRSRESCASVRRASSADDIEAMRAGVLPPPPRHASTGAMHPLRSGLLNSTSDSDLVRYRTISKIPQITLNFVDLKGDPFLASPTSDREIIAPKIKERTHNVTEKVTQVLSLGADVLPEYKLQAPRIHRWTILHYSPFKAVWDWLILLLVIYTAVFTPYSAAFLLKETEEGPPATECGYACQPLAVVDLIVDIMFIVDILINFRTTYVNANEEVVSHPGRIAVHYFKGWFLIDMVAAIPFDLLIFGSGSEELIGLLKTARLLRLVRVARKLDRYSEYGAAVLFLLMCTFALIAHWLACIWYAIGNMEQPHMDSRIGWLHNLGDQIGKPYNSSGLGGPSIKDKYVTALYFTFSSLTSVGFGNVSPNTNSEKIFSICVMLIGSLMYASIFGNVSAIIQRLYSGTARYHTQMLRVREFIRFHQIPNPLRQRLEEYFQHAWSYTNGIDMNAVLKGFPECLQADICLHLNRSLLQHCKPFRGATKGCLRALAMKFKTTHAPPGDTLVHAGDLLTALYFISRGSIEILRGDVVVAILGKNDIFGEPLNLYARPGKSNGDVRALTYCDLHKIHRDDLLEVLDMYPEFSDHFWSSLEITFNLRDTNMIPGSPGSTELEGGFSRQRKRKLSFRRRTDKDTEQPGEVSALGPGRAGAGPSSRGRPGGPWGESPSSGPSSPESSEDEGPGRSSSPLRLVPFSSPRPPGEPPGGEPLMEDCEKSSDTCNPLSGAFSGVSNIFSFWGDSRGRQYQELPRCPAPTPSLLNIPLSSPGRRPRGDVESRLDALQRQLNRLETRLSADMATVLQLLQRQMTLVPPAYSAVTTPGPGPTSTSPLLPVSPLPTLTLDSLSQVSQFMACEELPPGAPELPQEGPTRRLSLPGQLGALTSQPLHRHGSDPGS

[18] = AUC in BALB/c mouse at 50 mg/kg, po measured at 15 to 1440 mins by LC-MS/MS analysis; type: ADME, organism-based; parameters: time upper 1440 min, dose 50 mg/kg, time lower 15 min, route po; details: in vivo
[19] = Toxicity in BALB/c mouse assessed as reduction in body weight loss at 50 mg/kg, po bid; type: organism-based; parameters: scale not given: the % may be the effect or the level left; details: in vivo
Trypanosoma cruzi [20] = experiment: In vivo antitrypanosomal activity against Trypanosoma cruzi infected in BALB/c mouse model assessed as reduction in parasitemia at 30 mg/kg, po preincubated for 4 days post infection followed by compound treatment and measured after 5 to 10 days; type: functional; parameters: scale not given: the % may be the effect or the level left; details: time 5-10 day

| Structure (SMILES) | IC50 at 72 h [1] | pIC50 (Trypanosoma cruzi [2]) | other results |
| --- | --- | --- | --- |
| O=C1CCCN1c1ccc(Sc2ccccc2O)c(C(F)(F)F)c1 | 15.8 µM | 5.70 |  |
| O=C1CCCN1c1ccc(Sc2ccccc2CO)nc1 | > 50.1 µM | 4.90 |  |
| Cc1cccc(Sc2ccc(N3CCCC3=O)cc2C(F)(F)F)c1CO | > 50.1 µM | 6.50 |  |
| Cc1cccc(CO)c1Sc1ccc(N2CCCC2=O)cc1C(F)(F)F | > 50.1 µM | 6.10 |  |
| Cc1cc(N2CCCC2=O)ccc1Sc1ccccc1CO | > 50.1 µM | 5.20 |  |
| COCc1ccccc1Sc1ccc(N2CCCC2=O)cc1C#N | 31.6 µM | 5.20 |  |
| COc1ccc(CO)c(Sc2ccc(N3CCCC3=O)cc2C(F)(F)F)c1 | > 50.1 µM | 4.80 |  |
| O=C1CCCN1c1ccc(Sc2ncccc2CO)c(C(F)(F)F)c1 | > 50.1 µM | 4.70 |  |
| O=C1CCCN1c1ccc(Sc2ccccc2CO)c(OC(F)(F)F)c1 | > 50.1 µM | 5.60 |  |
| Cc1ccc(Sc2ccc(N3CCCC3=O)cc2C(F)(F)F)c(CO)c1 | > 50.1 µM | 5.20 |  |
| COc1cccc(CO)c1Sc1ccc(N2CCCC2=O)cc1C(F)(F)F | > 50.1 µM | 4.70 |  |
| CCc1ccccc1Sc1ccc(N2CCCC2=O)cc1C(F)(F)F | 15.8 µM | 4.70 |  |
| N#Cc1cc(N2CCCC2=O)ccc1Sc1cccc(CO)c1 | > 50.1 µM | 4.50 |  |
| O=C1CCCN1c1ccc(Sc2cccc(F)c2CO)c(C(F)(F)F)c1 | > 50.1 µM | 7.70 |  |
| O=C(O)c1cc(N2CCCC2=O)ccc1Sc1ccccc1CO | > 50.1 µM | < 4.30 |  |
| O=C1CCCN1c1ccc(S(=O)(=O)c2ccccc2CO)c(C(F)(F)F)c1 | > 50.1 µM | 6.60 | CLH [3]: 20 mL/min/g; half-life [4]: 4.39 min; CLH [5]: 12.5 mL/min/g; half-life [6]: 3.32 min; Cmax [7]: 175 ng/mL; Tmax [8]: 30 min; AUC(0-t) [9]: 208 ng·h/mL |
| O=C1CCCN1c1ccc(Sc2cc(Cl)ccc2CO)c(C(F)(F)F)c1 | 39.8 µM | 5.20 |  |
| N#Cc1cc(N2CCCC2=O)ccc1Oc1ccccc1CO | > 50.1 µM | 5.60 |  |

| Structure (SMILES) | IC50 at 72 h [1] | pIC50 (Trypanosoma cruzi [2]) | other results |
| --- | --- | --- | --- |
| O=C1CCCN1c1ccc(Sc2cccc(Cl)c2CO)c(C(F)(F)F)c1 | > 50.1 µM | 6.50 |  |
| COc1cccc(Sc2ccc(N3CCCC3=O)cc2C(F)(F)F)c1CO | > 50.1 µM | 4.60 |  |
| N#Cc1cc(N2CCCC2=O)ccc1Sc1ccccc1CO | 0.447 µM |  | CLH [3]: 1.36 mL/min/g; pIC50 (Trypanosoma cruzi [10]): 6.62; pIC50 (Trypanosoma cruzi [11]): 6.60; pIC50 [12]: 6.35; Activity (Trypanosoma cruzi [2]): inactive; pIC50 [13]: < 5.00; Time (Trypanosoma cruzi [14]): >24 h; pIC50 [15]: < 4.30; pIC50 (HepG2): < 4.00; solubility thermodynamic [16]: 56 µg/mL (≈ 173 µM); half-life [4]: 54 min; CLH [5]: 4.62 mL/min/g; half-life [6]: 15 min; pIC50 [17]: < 4.30 |
| O=C1CCCN1c1ccc(Sc2ccc(F)cc2CO)c(C(F)(F)F)c1 | > 50.1 µM |  |  |
| O=C1CCCN1c1ccc(Sc2ccc(Cl)cc2CO)c(C(F)(F)F)c1 | 31.6 µM | 6.80 |  |
| O=C1CCCN1c1ccc(Sc2c(Cl)cccc2CO)c(C(F)(F)F)c1 | > 50.1 µM | 5.90 |  |
| COC(=O)c1cc(N2CCCC2=O)ccc1Sc1ccccc1CO | > 50.1 µM | 4.50 |  |
| O=C1CCCN1c1ccc(Sc2ccccc2CO)c(F)c1 | > 50.1 µM | 5.30 |  |
| N#Cc1cc(N2CCCC2=O)ccc1Sc1ccccc1C(=O)O | > 50.1 µM | 6.10 |  |
| O=C1CCCN1c1ccc(Sc2ccccc2CO)cc1 | > 50.1 µM | < 4.30 |  |
| O=C(Cn1ccnc1[N+](=O)[O-])NCc1ccccc1 [BENZNIDAZOLE] | 31.6 µM | 5.90 |  |
| O=C1CCCN1c1ccc(Sc2cc(F)ccc2CO)c(C(F)(F)F)c1 | > 50.1 µM | 6.90 |  |
| O=C1CCCN1c1ccc(Sc2ccccc2CO)c(Cl)c1 | > 50.1 µM | 6.70 |  |
| Cc1ccc(CO)c(Sc2ccc(N3CCCC3=O)cc2C(F)(F)F)c1 | > 50.1 µM | 4.80 |  |
| O=C1CCCN1c1ccc(Sc2ccccc2CO)cc1C(F)(F)F | > 50.1 µM | 5.10 |  |
| COc1ccc(Sc2ccc(N3CCCC3=O)cc2C(F)(F)F)c(CO)c1 | > 50.1 µM | 6.00 |  |
| O=C1CCCN1c1ccc(Sc2ccccc2CO)c(C(F)(F)F)c1 | > 50.1 µM | 7.50 | CLH [3]: 31.49 mL/min/g; half-life [4]: 4.78 min; CLH [5]: 11.51 mL/min/g; half-life [6]: 2.11 min; Cmax [7]: 301 ng/mL; Tmax [8]: 30 min; AUC(0-t) [9]: 485 ng·h/mL; AUC [18]: 530 ng·h/mL; Activity [19]: 16%; Activity (Trypanosoma cruzi [20]): 70% |
| CN(C)C(=O)c1cc(N2CCCC2=O)ccc1Sc1ccccc1CO | > 50.1 µM | 4.30 |  |
